Earlier results in patent publication US20150086616A1, “METHOD FOR THE PREVENTION AND TREATMENT OF ALZHEIMER'S DISEASE” (priority 2013, published 2015).

What was measured:
Alzheimer's disease = conditions: for efficacy of oral NSAID as treatment of Alzheimer's disease: oral administration
[1] = ophthalmic
[2] = highly lipophilic drugs
[3] = after multiple oral doses of ibuprofen

Row | SMILES | direct cyclooxygenase inhibition (cyclooxygenase) | crossing of the blood brain barrier [2] | efficacy of oral NSAID as treatment of Alzheimer's disease (Alzheimer's disease) | other results
1 | C[C@H](C(=O)O)c1ccc(-c2ccccc2)c(F)c1 (single isomer, unassigned) [S-enantiomer of flurbiprofen] | is a cyclooxygenase inhibitor | – | – | –
2 | C[C@@H](C(=O)O)c1ccc(-c2ccccc2)c(F)c1 [R-flurbiprofen] | devoid of any direct cyclooxygenase inhibition | – | – | phase III clinical trial for the treatment of Alzheimer's disease (Alzheimer's disease; phase III clinical trial): failed
3 | O=C(O)Cc1ccccc1Nc1c(Cl)cccc1Cl [diclofenac] | – | readily cross the blood brain barrier | – | anti-inflammatory action compared with flurbiprofen [1]: more anti-inflammatory action; burning sensation compared with flurbiprofen [1]: less burning sensation
4 | CC(C(=O)O)c1ccc(-c2ccccc2)c(F)c1 (stereo not drawn) [flurbiprofen] | – | readily cross the blood brain barrier | not an effective treatment | –
5 | CC(C)Cc1ccc(C(C)C(=O)O)cc1 (stereo not drawn) [ibuprofen] | – | readily cross the blood brain barrier | not an effective treatment | brain concentration [3]: 0.4 µg/g; concentration in fat [3]: 58.4 μg/g tissue
